Results from patent US20090318527A1, “INDOLE COMPOUNDS AND METHODS OF USE THEREOF” (priority 2008, published 2009).

Assays:
[1] = system: mice; assay: Serotonin-induced scratching in mice (animal model for OCD); format: in vivo, male Swiss-Webster mice
Procedure: The subjects were male Swiss-Webster mice, 4-6 weeks old, weighing 25-45 g. Mice were housed 5 per cage, given free access to standard mouse food and water except during experiments, and maintained in a temperature-controlled room (70° F.). Serotonin and all test drugs were made up with ascorbic acid to protect against oxidation. Two mice, one a control, the other experimental, were tested each time. Each mouse was separately placed into a plexiglas box.
Mice were injected subcutaneously between the shoulder blades with 0.1 ml of serotonin, 0.4 mg per ml in 0.15 M saline plus ascorbic acid, 1 mg/ml. […] The cumulative number of scratches with a hind leg was recorded at 5 minute intervals for 30 minutes. One saline injected control and one test animal were tested together in each assay.

[2] = system: mice; assay: Appetite suppression studies in food-deprived mice; format: in vivo; conditions: mice food-deprived 18 hours, i.p.; for % Reduction from control (food consumption): p <0.05 versus saline control
Procedure: Mice were deprived of food, but not water, for 18 hours. They were then injected i.p. with test compounds dissolved in 0.9% NaCl containing 1 mg per ml ascorbic acid for protection against oxidation. Each mouse was placed in an individual cage for 30 minutes and then presented with a small petri dish containing a gel made from gelatin, powdered milk and sucrose. The dish was weighed at zero time and at 15-minute intervals for the next hour in order to quantitate food consumption. Controls were injected with saline-ascorbic acid; ±fenfluramine was used as an active control.

[3] = molecular target: T1, human 5-HT2B receptor (Homo sapiens, UniProt P41595); assay: Intracellular calcium flux assay, HEK 293 cells stably expressing 5-HT2B; format: cell-based; conditions: HEK293; at 10,000 nM; read-out: 5-HT2B functional activity (N/A class);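 note: calcium dye fluorescence read on a FLIPR Tetra, peak signal above baseline within 60 s after compound addition, seven-point concentration series from 10 pM up to 10 µM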
T1 construct: expressed in transfected cells; host or cells: HEK 293

[4] = molecular target: T2, 5-HT2C (Homo sapiens, UniProt P28335); assay: Intracellular calcium flux assay, HEK 293 cells stably expressing 5-HT2C; format: cell-based; parameters: expressed in transfected cells; host or cells: HEK 293;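 note: calcium dye fluorescence read on FLIPR Tetra as peak signal above baseline within 60 s of compound addition, seven concentrations from 10 pM to 10 µM, each in triplicate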
T2 sequence (P28335 33-458): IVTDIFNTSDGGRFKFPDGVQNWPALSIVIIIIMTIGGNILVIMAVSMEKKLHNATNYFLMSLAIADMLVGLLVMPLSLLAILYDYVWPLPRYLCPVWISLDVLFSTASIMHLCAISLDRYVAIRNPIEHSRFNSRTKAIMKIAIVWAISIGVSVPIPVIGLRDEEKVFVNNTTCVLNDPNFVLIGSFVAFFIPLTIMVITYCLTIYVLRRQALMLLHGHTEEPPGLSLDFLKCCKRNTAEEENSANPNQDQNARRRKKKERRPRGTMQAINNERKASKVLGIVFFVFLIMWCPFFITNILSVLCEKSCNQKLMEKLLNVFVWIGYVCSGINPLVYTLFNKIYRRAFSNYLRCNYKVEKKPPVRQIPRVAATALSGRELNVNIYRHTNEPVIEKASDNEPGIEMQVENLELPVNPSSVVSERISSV

[5] = molecular target: T3, human 5-HT2A receptor (Homo sapiens, UniProt P28223); assay: Intracellular calcium flux assay, HEK 293 cells stably expressing 5-HT2A; format: cell-based;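 note: fluorescent calcium dye read on FLIPR Tetra, peak signal above baseline within 60 s after compound addition, seven concentrations spanning 10 pM to 10 µM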
T3 construct: expressed in transfected cells; host or cells: HEK 293

[6] = molecular target: T2, 5-HT2C; conditions: cited from earlier work

T3 sequence (P28223 whole entry): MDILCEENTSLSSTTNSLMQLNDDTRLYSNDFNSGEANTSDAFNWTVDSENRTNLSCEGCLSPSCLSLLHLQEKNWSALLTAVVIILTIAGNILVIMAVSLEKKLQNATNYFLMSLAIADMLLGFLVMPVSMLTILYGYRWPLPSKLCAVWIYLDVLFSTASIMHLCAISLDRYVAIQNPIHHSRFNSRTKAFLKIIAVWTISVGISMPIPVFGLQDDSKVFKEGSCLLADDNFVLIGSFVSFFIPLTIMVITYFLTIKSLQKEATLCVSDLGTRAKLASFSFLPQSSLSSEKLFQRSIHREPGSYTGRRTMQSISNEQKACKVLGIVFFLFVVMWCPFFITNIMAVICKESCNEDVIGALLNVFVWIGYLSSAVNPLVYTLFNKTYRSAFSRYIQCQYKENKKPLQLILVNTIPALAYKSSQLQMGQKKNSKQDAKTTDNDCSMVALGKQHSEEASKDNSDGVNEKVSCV
T1 sequence (P41595 whole entry): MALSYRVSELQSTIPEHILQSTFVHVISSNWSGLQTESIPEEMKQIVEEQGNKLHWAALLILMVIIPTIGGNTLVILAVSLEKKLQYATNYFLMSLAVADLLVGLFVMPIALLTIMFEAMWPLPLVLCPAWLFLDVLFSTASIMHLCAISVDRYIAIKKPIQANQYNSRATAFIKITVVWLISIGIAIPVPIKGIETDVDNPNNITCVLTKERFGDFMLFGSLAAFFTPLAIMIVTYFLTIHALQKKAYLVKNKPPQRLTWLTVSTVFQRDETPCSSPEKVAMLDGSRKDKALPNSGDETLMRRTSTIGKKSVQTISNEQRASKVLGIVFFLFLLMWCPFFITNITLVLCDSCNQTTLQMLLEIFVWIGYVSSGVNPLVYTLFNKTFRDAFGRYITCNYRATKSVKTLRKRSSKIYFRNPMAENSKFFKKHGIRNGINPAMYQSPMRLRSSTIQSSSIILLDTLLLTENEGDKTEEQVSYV

SMILES	Average Number of Scratches 30 min. after injection (±SEM) ([1]; i.p. 5 minutes before serotonin s.c., 3 mg/kg)	% Reduction from control (scratches) ([1]; i.p., 3 mg/kg, p <0.05 versus saline control (*p = 0.09))	Average Number of Scratches 30 min. after injection (±SEM) ([1]; oral gavage, 10 mg/kg)	% Reduction from control (scratches) ([1]; oral gavage, 10 mg/kg, p < 0.05)	Mean food consumption 60 min. after injection: g (±SEM) Compound ([2]; 5 mg/kg)	% Reduction from control (food consumption) ([2]; 5 mg/kg)	Mean food consumption 60 min. after injection: g (±SEM) Compound ([2]; 10 mg/kg)	% Reduction from control (food consumption) ([2]; 10 mg/kg)	Emax at 10 µM [3]	Average Number of Scratches 30 min. after injection (±SEM) ([1]; i.p. 5 minutes before serotonin s.c., 10 mg/kg)	% Reduction from control (scratches) ([1]; i.p., 10 mg/kg, p <0.05 versus saline control)	Average Number of Scratches 30 min. after injection (±SEM) ([1]; oral gavage, 20 mg/kg)	% Reduction from control (scratches) ([1]; oral gavage, 20 mg/kg, p < 0.05)	Emax ([4]; HEK293, read-out: 5-HT2C efficacy as percentage of the maximal 5-HT response ± SD, at least three independent experiments, entries marked a (42, 50, 51, 52) single measurements)	EC50 ([4]; at least three independent experiments, entries marked a (42, 50, 51, 52) single measurements, read-out: 5-HT2C mean EC50 ± SD)	5-HT2A response as percentage of the maximal 5-HT response @ 10,000 ([5]; at 10,000 nM, EC50 not reached)	EC50 ([5]; calcium flux, at least three independent experiments, each in triplicate, read-out: 5-HT2A mean EC50 ± SD)	times more active at 5-HT2C as compared to 5-HT2A ([6]; 5-HT2C versus 5-HT2A)	selectivity over 5-HT2B receptors ([6]; 5-HT2C versus 5-HT2B)
CCNC(C)Cc1cccc(C(F)(F)F)c1 (racemic) [(±)-Fenfluramine, reference compound]	22.8 ± 11.7	95%	35 ± 25.8	94%	0.90 (.04) g	39%	0.41 (.11) g	69%	–	–	–	–	–	–	–	–	–	–	–
COc1ccc(F)c2c1c(CCN(C)C)cn2C [Compound 22, 2-(7-Fluoro-4-methoxy-1-methyl-1H-indol-3-yl)-N,N-dimethylethanamine]	–	–	–	–	–	–	0.15 (0.1) g	77%	< 10%	4.7 ± 4.7	98.5%	102 ± 50.8	83%	82%	9.4 ± 4.9 nM	(21 ± 6 @ 10,000) %	> 10000 nM	–	–
C[C@H](N)Cn1ccc2cc(F)c(Cl)cc21 [Ro 60-0175]	–	–	–	–	–	–	–	–	–	–	–	–	–	–	–	–	–	25 times	not selective
